Results on one molecule are retold here after patent EP0923292B1, “IMPROVED METHOD FOR SYSTEMIC ADMINISTRATION OF 2,4-DIENOIC ACID-TYPE INSECTICIDES TO TERRESTRIAL MAMMALS” (priority 1996, dated 1998).

Like-named read-outs stand apart in the source and are kept apart here.

In assay [1] the test system is adult cat fleas. Kind of assay: Flea ovicidal activity in vitro: artificial feeding system with treated beef blood (Examples 4 and 6). The arrangement: species or system C. felis. To be noted: Ctenocephalides felis; for inhibition at 0.05 ppm: 0.05 ppm in beef blood; for inhibition at 0.075 ppm: 0.075 ppm in beef blood; for inhibition at 0.1 ppm: 0.1 ppm in beef blood; for inhibition at 0.25 ppm: 0.25 ppm in beef blood; for inhibition at 0.5 ppm: 0.5 ppm in beef blood. The text has this:
For the in vitro tests, an artificial feeding system with cages for adult cat fleas C. felis was used as described by Wade, S.E., et al., J. Med. Ent. 25(3): 186-190 (May 1988). Inside each cage were placed 100 one-week-old, unfed adult C. fells. Each cage included a container for treated blood separated from the fleas by a PARAFILM® membrane, and a compartment containing thin strips of paper to support loosely arranged clean dog hair and to provide a foothold for the fleas as they fed on the blood through the membrane.
The artificial feeding system and cages for adult cat fleas described in Example 3 were used. Beef blood was used for the feeding system, and was prepared by adding 35 mL of a 20% sodium citrate solution per liter of blood to prevent clotting. A stock solution of lufenuron was prepared by adding 50.1 mg of technical lufenuron to 4.951 g of dimethyl sulfoxide (DMSO) to yield a 1.0% solution. A 1,000 ppm solution was then prepared by diluting 1.0 mL of the 1.0% solution in 9.0 mL of DMSO, and a 100 ppm solution was prepared by diluting 1.0 mL of the 1,000 ppm solution in 9.0 mL of DMSO. Dimethyl sulfoxide itself was used as a control. To treat the blood, the various solutions (0.05 mL) were added to the citrated beef blood (100.0 mL) to yield beef blood solutions containing 5.0 ppm, 0.5 ppm, 0.05 ppm, and 0.00 (zero) ppm lufenuron. Each solution was mixed thoroughly, and 10 mL at each concentration were placed in each of five feeders in the artificial feeding system to serve as replicates. Each day fresh blood solutions identical to the originals were placed in the feeders.
Flea eggs were collected from each replicate on days 3, 5 and 7. One hundred (100) healthy appearing […] were counted under a dissecting microscope from each replicate, divided into two subsamples per replicate, and placed in 60 mm x 15 mm plastic petri dishes. The samples were incubated at 78°F and 85% relative humidity for three days, then scored for larval hatch using by visual observation through the dissecting microscope. The data from all replicates at each concentration were combined to yield the mean percent egg hatch, and the percent inhibition of egg hatch was calculated relative to the control.
Retuming to (S)-methoprene, this example presents in vitro flea ovicidal activity using beef blood, for comparison with Example 4. Procedures using beef blood were the same as those indicated in the previous examples.

For assay [2], the system named is C. felis. As to the kind of experiment: Systemic ovicidal activity upon oral administration (initial bolus plus daily diet) to host dogs (Example 3). In kind it is in vivo, C. felis (host: dogs). To be noted: eggs collected from the dogs, week 4. The text has this: Eleven days before the administration of the first gelatin capsule (i.e., on Day -11), and weekly thereafter through Day 59, each dog was infested with approximately 200 one-to two-week-old, unfed adult C. fells fleas of mixed sex ratio. Each dog was restrained for about one minute while the fleas were released along the dorsum.
Flea eggs were collected on Days -7, 0, 1, 2, 4, 7, and weekly thereafter through Day 63. Prior to egg collection, the cages in which the dogs were housed and the collection trays were rinsed with isopropyl alcohol, and the water was turned off, feed bowls and resting pads were removed from each cage. […] Using a dissecting microscope and a fine tipped artist brush, 100 flea eggs were counted from the sweepings of each dog and separated into four replicates of 25 eggs each. […] Seventy two hours after collection, larvae emergence was determined. Both dead and live larvae were counted to determine the ovicidal effect of the treatment. […]
Three days prior to the week 4 data point, each dog was infested with fleas in the manner described in Example 2. At week 4, flea eggs were collected from the dogs themselves in the manner described in Example 2, and the percent inhibition of egg hatch for the fleas collected in this manner was determined as in Example 2.

The mark [3] stands for this setting: average over days, read-out: Percent Inhibition of Flea Egg Hatching, averages.
Setting [4] is: 72 h, day 3, read-out: Percent Inhibition of Flea Egg Hatching.
The mark [5] stands for this setting: 120 h, day 5, read-out: Percent Inhibition of Flea Egg Hatching.
Setting [6] is: 144 h, day 6, read-out: Percent Inhibition of Flea Egg Hatching.
The mark [7] stands for this setting: 240 h, day 10, read-out: Percent Inhibition of Flea Egg Hatching.

Broadly, the inhibition is the drop in the measured response relative to a control, in per cent. In the case of `COC(C)(C)CCC[C@H](C)C/C=C/C(C)=C/C(=O)OC(C)C` [(S)-Methoprene, 1-isopropyl (E,E)-11-methoxy-3,7,11-trimethyl dodecadi-2,4-enoate], the inhibition at 0.05 ppm in assay [1] (setting [3]) came to 56.4%; in assay [1] (setting [4]), 47.3%; in assay [1] (setting [7]), 65.4%. The inhibition at 0.075 ppm in assay [1] (average of a and b, read-out: Percent Inhibition of Flea Egg Hatching, averages) was 72%; in assay [1] (192 h, day 8, entry a, read-out: Percent Inhibition of Flea Egg Hatching), 66%; in assay [1] (192 h, day 8, entry b, read-out: Percent Inhibition of Flea Egg Hatching), 78%. Moreover, the inhibition at 0.1 ppm in assay [1] (setting [3]) came to 96.6%; in assay [1] (setting [5]), 97.4%; in assay [1] (setting [6]), 95.7%. Besides, the inhibition at 0.25 ppm came to 99.5% in assay [1] (setting [3]), 100% in assay [1] (setting [5]) and 99% in assay [1] (setting [6]). In addition, the inhibition at 0.5 ppm was 99.8% in assay [1] (setting [3]); 99.1% in assay [1] (setting [4]); 100% in assay [1] (168 h, day 7, read-out: Percent Inhibition of Flea Egg Hatching); 100% in assay [1] (setting [7]); 100% in assay [1] (312 h, day 13, read-out: Percent Inhibition of Flea Egg Hatching). In addition, the “Percent Inhibition of Flea Egg Hatching” value in assay [2] (initial bolus 25 mg/kg then daily diet 0.01% (S)-methoprene) and in assay [2] (initial bolus 50 mg/kg then daily diet 0.02% (S)-methoprene) was 100% each time.
